Results from paper PMC9732823, “Discovery of Dual Aβ/Tau Inhibitors and Evaluation of Their Therapeutic Effect on a Drosophila Model of Alzheimer’s Disease” (ACS Chemical Neuroscience, 2022).
Where two headings read alike, the source gives them in different places.

Columns and labels:
Tau protein = target: T1, Tau protein (Homo sapiens, UniProt P10636); test: Inhibition of Tau aggregation in intact E. coli cells overexpressing Tau (ThS fluorescence); type: cell-based, Escherichia coli; conditions: for inhibition at 10 µM: read-out: % inhibition Tau aggregation @ 10 μM, intact E. coli cells, compound 10 μM, mean ± SEM of four independent experiments; for % inhibition Tau aggregation @ 10 μM: intact E. coli cells, compound 10 μM, mean ± SEM of four independent experiments
T1 construct: expressed in transfected cells; host or cells: Escherichia coli BL21 (DE3) with pTARA and pRKT42
T1 sequence (P10636 1-441 isoform P10636-8): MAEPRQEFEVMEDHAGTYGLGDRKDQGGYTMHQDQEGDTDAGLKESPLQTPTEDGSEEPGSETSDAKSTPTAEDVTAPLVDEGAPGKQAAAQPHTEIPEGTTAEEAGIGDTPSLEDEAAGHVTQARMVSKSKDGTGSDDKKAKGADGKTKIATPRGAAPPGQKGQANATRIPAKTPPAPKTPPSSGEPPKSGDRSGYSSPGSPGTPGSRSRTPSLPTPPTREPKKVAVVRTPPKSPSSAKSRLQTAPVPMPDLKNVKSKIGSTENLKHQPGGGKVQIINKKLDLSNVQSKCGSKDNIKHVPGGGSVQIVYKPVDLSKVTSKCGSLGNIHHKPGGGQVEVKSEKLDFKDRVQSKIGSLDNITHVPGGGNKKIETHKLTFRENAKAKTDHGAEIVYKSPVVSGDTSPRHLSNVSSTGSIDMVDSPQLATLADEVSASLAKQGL
Source text: (§1) As it would have been labor-intensive and expensive to screen such a number of compounds in two separate antiaggregating studies using recombinant Aβ and Tau, we turned our attention to a simple model of protein aggregation, namely, the intact Escherichia coli (E. coli) cells overexpressing Aβ42 and Tau proteins.[28],[29] Building on the fact that inclusion bodies produced by overexpression of these proteins in E. coli mainly consist of fibrillar aggregates, this simple screening method uses bacteria as an in vivo reservoir for tracking the inhibition of amyloid-type protein aggregation in real time, using the amyloid dye thioflavin S (ThS). Of note, this screening has already been used for the evaluation of libraries of antiaggregating compounds.[28]−[38]
E. coli BL21 (DE3) competent cells were transformed with pTARA containing the RNA-polymerase gen of the T7 phage (T7RP) under the control of the promoter PBAD. E. coli BL21 (DE3) with pTARA competent cells were transformed with the pRKT42 vector encoding four repeats of Tau protein in two inserts. For overnight culture preparation, 10 mL of M9 medium containing 0.5% of glucose, 100 μg·mL^–1 ampicillin, and 12.5 μg·mL^–1 chloramphenicol were inoculated with a colony of BL21 (DE3) bearing the plasmids to be expressed at 37 °C. For expression of Tau protein, the required volume of overnight culture to obtain 1:500 dilution was added to fresh M9 minimal medium containing 0.5% of glucose, 50 μg·mL^–1 ampicillin, 12.5 μg·mL^–1 chloramphenicol, and 25 μM ThS. The bacterial culture was grown at 37 °C and 250 rpm. When the cell density reached ABS600 nm= 0.6, an amount of 980 μL of culture was transferred into Eppendorf tubes of 1.5 mL with 10 μL of each compound to be tested in DMSO and 10 μL of arabinose at 25%. The final concentration of the drug was fixed at 10 μM. The samples were grown overnight at 37 °C and 1400 rpm using a thermomixer (Eppendorf, Hamburg, Germany). As the control of maximal amyloid presence, the same amount of DMSO without the drug was added to the sample. In parallel, noninduced samples (in the absence of arabinose) were also prepared and used as controls for the amyloid absence. In addition, the absorbance at 600 nm of the samples was checked to assess the potential intrinsic toxicity of the compounds and to confirm the correct bacterial growth.
(§2) ThS (T1892) and other chemical reagents were purchased from Sigma (St. Louis, MO). ThS stock solution (25 mM) was prepared in double-distilled water purified through a Milli-Q system (Millipore). For the fluorescence assay, the ThS spectra were measured on an AMINCO-Bowman series 2 luminescence spectrophotometer (Aminco-Bowman AB2, SLM Aminco, Rochester, NY) from 460 to 600 nm at 25 °C using an excitation wavelength of 440 nm and slit widths of 4 nm. The emission at 485 nm (fluorescence peak of ThS in the presence of amyloids) was recorded. To normalize the ThS fluorescence as a function of the bacterial concentration, ABS600nm was obtained using a Shimadzu UV-2401 PC UV–Vis spectrophotometer (Shimadzu, Japan). Note that the fluorescence normalization was carried out considering as 100% the ThS fluorescence of the bacterial cells expressing the peptide or protein in the absence of the drug and 0% the ThS fluorescence of the bacterial cells nonexpressing the peptide or protein.

[1] = test system: cerebellar granule neurons (CGNs); test: Neurotoxicity on primary cultures of cerebellar granule neurons (nuclei counting after Hoechst staining); conditions: differentiated CGNs, 24 h, percentage of healthy nuclei on total nuclei, mean ± SEM of three experiments
Aβ42 = target: T2, Aβ42 (Homo sapiens, UniProt P05067); test: Inhibition of Aβ42 aggregation in intact E. coli cells overexpressing Aβ42 (ThS fluorescence); type: cell-based, Escherichia coli
T2 construct: expressed in transfected cells; host or cells: Escherichia coli BL21 (DE3), pET28a
T2 sequence (P05067 672-713 limits assumed): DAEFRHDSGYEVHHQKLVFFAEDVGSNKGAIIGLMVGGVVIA
Source text: as §1
Escherichia coli competent cells BL21 (DE3) were transformed with the pET28a vector (Novagen, Inc., Madison, WI) carrying the DNA sequence of Aβ42. Because of the addition of the initiation codon ATG in front of both genes, the overexpressed peptide contains an additional methionine residue at its N terminus. For overnight culture preparation, an amount of 10 mL of M9 minimal medium containing 50 μg·mL^–1 kanamycin was inoculated with a colony of BL21 (DE3) bearing the plasmid to be expressed at 37 °C. For expression of the Aβ42 peptide, the required volume of overnight culture to obtain 1:500 dilution was added into fresh M9 minimal medium containing 50 μg·mL^–1 kanamycin and 250 μM ThS. The bacterial culture was grown at 37 °C and 250 rpm. When the cell density reached ABS600 nm = 0.6, an amount of 980 μL of culture was transferred into Eppendorf tubes of 1.5 mL with 10 μL of each compound to be tested in DMSO and 10 μL of isopropyl 1-thio-β-D-galactopyranoside (IPTG) at 100 mM. The final concentration of the drug was fixed at 10 μM. The samples were grown overnight at 37 °C and 1400 rpm using a thermomixer (Eppendorf, Hamburg, Germany). As the control of the amyloid presence (maximal amyloid presence), the same amount of DMSO without the drug was added to the sample. In parallel, noninduced samples (in the absence of IPTG) were also prepared and used as controls of the non-amyloid presence. In addition, the absorbance at 600 nm of the samples was checked to assess the potential intrinsic toxicity of the compounds and to confirm the correct bacterial growth.
as §2

[2] = read-out: % inhibition Aβ42 aggregation @ 10 μM, intact E. coli cells, compound 10 μM, mean ± SEM of four independent experiments

| Compound | inhibition at 10 µM (Tau protein) [%] | % survival neurotoxicity @ 10 μM [1] [%] | inhibition at 10 µM (Aβ42; [2]) [%] | % inhibition Tau aggregation @ 10 μM (Tau protein) [%] | % inhibition Aβ42 aggregation @ 10 μM (Aβ42; intact E. coli cells, compound 10 μM, mean ± SEM of four independent experiments) [%] | inhibition at 10 µM (Aβ42; read-out: % inhibition Aβ42 aggregation @ 10 μM) [%] | % inhibition Tau aggregation @ 10 μM (Tau protein; 10 µM) [%] |
| --- | --- | --- | --- | --- | --- | --- | --- |
| CN(C)CCN1C(=O)S/C(=C\c2ccc(-c3ccc(/C=C4\SC(=O)N(CCN(C)C)C4=O)s3)s2)C1=O [Compound 24, (5Z,5′Z)-5,5′-([2,2′-Bithiophene]-5,5′-diylbis(methanylylidene))bis(3-(2-(dimethylamino)ethyl)thiazolidine-2,4-dione)] | 17.3 ± 4.5 | 88.8 ± 2.3 | 20.3 ± 4.8 |  |  |  |  |
| CCOC(=O)CN1C(=O)S/C(=C\c2ccc3c(c2)C(C)(C)c2cc(/C=C4\SC(=O)N(CC(=O)OCC)C4=O)ccc2-3)C1=O [Compound 11, Diethyl 2,2′-((5Z,5′Z)-((9,9-dimethyl-9H-fluorene-2,7-diyl)bis(methanylylidene))bis(2,4-dioxothiazolidin-3-yl-5-ylidene))diacetate] | 33.1 ± 4.5 | 85.8 ± 6.9 | 17.5 ± 4.5 |  |  |  |  |
| CN(C)CCN1C(=O)S/C(=C\c2ccc(Cc3ccc(/C=C4\SC(=O)N(CCN(C)C)C4=O)cc3)cc2)C1=O [Compound 21, (5Z,5′Z)-5,5′-((Methylenebis(4,1-phenylene))bis(methanylylidene))bis(3-(2-(dimethylamino)ethyl)thiazolidine-2,4-dione)] | 38.7 ± 3.3 | 91.1 ± 1.5 | 16.1 ± 3.8 |  |  |  |  |
| CCOC(=O)CN1C(=O)S/C(=C\c2ccc(Cc3ccc(/C=C4\SC(=O)N(CC(=O)OCC)C4=O)cc3)cc2)C1=O [Compound 9, Diethyl 2,2′-((5Z,5′Z)-((methylenebis(4,1-phenylene))bis(methanylylidene))bis(2,4-dioxothiazolidin-3-yl-5-ylidene))diacetate] | 19.9 ± 3.6 | 88.7 ± 4.1 | 14.5 ± 4.1 |  |  |  |  |
| CCOC(=O)CN1C(=O)S/C(=C\c2ccc(-c3ccc(/C=C4\SC(=O)N(CC(=O)OCC)C4=O)cc3)cc2)C1=O [Compound 8, Diethyl 2,2′-((5Z,5′Z)-([1,1′-biphenyl]-4,4′-diylbis(methanylylidene))bis(2,4-dioxothiazolidin-3-yl-5-ylidene))diacetate] | 18.1 ± 3.2 | 87.2 ± 3.1 | 14.3 ± 3.5 |  |  |  |  |
| CN(C)CCN1C(=O)S/C(=C\c2ccc(-c3ccc(/C=C4\SC(=O)N(CCN(C)C)C4=O)cc3)cc2)C1=O [Compound 20, (5Z,5′Z)-5,5′-([1,1′-Biphenyl]-4,4′-diylbis(methanylylidene))bis(3-(2-(dimethylamino)ethyl)thiazolidine-2,4-dione)] | 34.9 ± 1.9 | 91.1 ± 0.9 | 26.4 ± 4.2 |  |  |  |  |
| CC1=CC2Cc3nc4cc(Cl)ccc4c(NCCCCCCCNc4c5c(nc6ccccc46)CCCC5)c3C(C1)C2 (centres unmarked) [HUP7TH, reference compound] |  |  |  | 69.5 ± 1.6 | 77.6 ± 1.5 |  |  |
| O=C1NC(=O)/C(=C/c2ccc(/C=C3\SC(=O)NC3=O)cc2)S1 [Compound 1, (5Z,5′Z)-5,5′-(1,4-Phenylenebis(methanylylidene))bis(thiazolidine-2,4-dione)] | 19.4 ± 3.6 | 77.6 ± 6.1 | 25.4 ± 1.9 |  |  |  |  |
| O=C(O)CN1C(=O)S/C(=C\c2ccc(Cc3ccc(/C=C4\SC(=O)N(CC(=O)O)C4=O)cc3)cc2)C1=O [Compound 15, 2,2′-((5Z,5′Z)-((Methylenebis(4,1-phenylene))bis(methanylylidene))bis(2,4-dioxothiazolidin-3-yl-5-ylidene))diacetic acid] | 3.8 ± 5.2 | 90.9 ± 1.5 | 26.2 ± 1.9 |  |  |  |  |
| CC1=CC2Cc3nc4cc(Cl)ccc4c(N)c3C(C1)C2 (centres unmarked) [Huprine Y, huprine Y, reference compound] |  |  |  |  |  | 4.6 ± 2.3 |  |
| O=C1NC(=O)/C(=C/c2ccc(Cc3ccc(/C=C4\SC(=O)NC4=O)cc3)cc2)S1 [Compound 3, (5Z,5′Z)-5,5′-((Methylenebis(4,1-phenylene))bis(methanylylidene))bis(thiazolidine-2,4-dione)] | 5.2 ± 2.7 | 62.4 ± 9.6 | 12.9 ± 3.4 |  |  |  |  |
| O=C(O)CN1C(=O)S/C(=C\c2ccc(/C=C3\SC(=O)N(CC(=O)O)C3=O)cc2)C1=O [Compound 13, 2,2′-((5Z,5′Z)-(1,4-Phenylenebis(methanylylidene))bis(2,4-dioxothiazolidin-3-yl-5-ylidene))diacetic acid] | 25.3 ± 4.2 | 82.3 ± 2.9 | 16.1 ± 3.9 |  |  |  |  |
| CCOC(=O)CN1C(=O)S/C(=C\c2ccc(-c3ccc(/C=C4\SC(=O)N(CC(=O)OCC)C4=O)s3)s2)C1=O [Compound 12, Diethyl 2,2′-((5Z,5′Z)-([2,2′-bithiophene]-5,5′-diylbis(methanylylidene))bis(2,4-dioxothiazolidin-3-yl-5-ylidene))diacetate] | 9.2 ± 5 | 90.2 ± 2.1 | 7 ± 3.7 |  |  |  |  |
| O=C1NC(=O)/C(=C/c2ccc3[nH]c4ccc(/C=C5\SC(=O)NC5=O)cc4c3c2)S1 [Compound 4, (5Z,5′Z)-5,5′-((9H-Carbazole-3,6-diyl)bis(methanylylidene))bis(thiazolidine-2,4-dione)] | 21.2 ± 2.6 | 73.4 ± 5.1 | 24.7 ± 4.1 |  |  |  |  |
| CN(C)CCN1C(=O)S/C(=C\c2ccc(/C=C3\SC(=O)N(CCN(C)C)C3=O)cc2)C1=O [Compound 19, (5Z,5′Z)-5,5′-(1,4-Phenylenebis(methanylylidene))bis(3-(2-(dimethylamino)ethyl)thiazolidine-2,4-dione)] | 19.4 ± 3.6 | 89.4 ± 2.0 | 8.1 ± 4.4 |  |  |  |  |
| O=C(O)CN1C(=O)S/C(=C\c2ccc(-c3ccc(/C=C4\SC(=O)N(CC(=O)O)C4=O)s3)s2)C1=O [Compound 18, 2,2′-((5Z,5′Z)-([2,2′-Bithiophene]-5,5′-diylbis(methanylylidene))bis(2,4-dioxothiazolidin-3-yl-5-ylidene))diacetic acid] | < 20 | 90.9 ± 3.1 | 65.6 ± 3.3 |  |  |  | 15.8 ± 4.7 |
| O=C(O)c1cc(O)c2c(c1)C(=O)c1cccc(O)c1C2=O [Rhein, rhein, reference compound] | 39.2 ± 2.1 |  |  |  |  |  |  |
